Patent US6974870B2, “Substituted 3-amino-thieno [2,3-b]pyridine-2-carboxylic acid amide compounds and processes for preparing and their uses” (Boehringer Ingelheim Phamaceuticals, Inc., priority 2002, dated 2005)

What follows are compounds tested against T1, human IKKβ (Homo sapiens, UniProt O14920) (assay: IKKβ kinase inhibition assay (phosphorylation of IκBα substrate, 33P-ATP)). Conditions: flag-tagged human IKKβ 0.9 μg/ml, GST-IκBα (1-54) 53 μg/ml, 250 nM ATP, 1 hour at 25° C.
T1 construct: FLAG (N)
T1 sequence (O14920 1-756): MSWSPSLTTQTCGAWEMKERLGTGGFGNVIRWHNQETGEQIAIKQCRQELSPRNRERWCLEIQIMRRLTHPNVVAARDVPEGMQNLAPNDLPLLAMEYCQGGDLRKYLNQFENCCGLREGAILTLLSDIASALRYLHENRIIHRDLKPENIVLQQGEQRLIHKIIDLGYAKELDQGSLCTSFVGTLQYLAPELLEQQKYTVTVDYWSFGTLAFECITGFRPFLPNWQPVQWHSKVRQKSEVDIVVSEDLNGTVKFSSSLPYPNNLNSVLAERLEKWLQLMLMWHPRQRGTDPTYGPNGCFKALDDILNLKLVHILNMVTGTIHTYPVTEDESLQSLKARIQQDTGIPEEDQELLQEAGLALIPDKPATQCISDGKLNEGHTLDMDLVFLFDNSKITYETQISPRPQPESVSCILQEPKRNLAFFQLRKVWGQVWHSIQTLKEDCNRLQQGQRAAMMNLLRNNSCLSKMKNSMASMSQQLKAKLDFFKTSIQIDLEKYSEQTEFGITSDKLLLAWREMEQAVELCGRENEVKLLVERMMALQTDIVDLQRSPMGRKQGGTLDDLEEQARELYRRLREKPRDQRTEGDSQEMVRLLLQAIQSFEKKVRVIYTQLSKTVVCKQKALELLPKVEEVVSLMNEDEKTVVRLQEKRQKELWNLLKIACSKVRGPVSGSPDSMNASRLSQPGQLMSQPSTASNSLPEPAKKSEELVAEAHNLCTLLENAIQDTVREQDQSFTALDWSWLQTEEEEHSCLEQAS
Format: biochemical
Protocol: The inhibition of IKKα and IKKβ by the compounds of the present invention was determined with the following assay that measures the phosphorylation of the IκBα substrate by the respective kinases. The enzymes used in the assay were N-terminally flag-tagged versions of the human IKKβ or IKKα and the substrate was a GST fusion protein with IκBα (amino acids 1-54).
The reaction mixtures (60 μl) contained 20 mM HEPES pH 7.5, 10 mM MgCl2, 2 mM MnCl2, 100 mM NaCl, 100 μM Na3VO4, 20 mM β-glycerophosphate, 1 mM DTT, 2% DMSO, 250 nM ATP, 0.4 nM [^33P]ATP (specific activity, 3000 Ci/mmol), IκBα substrate, IKK enzyme and test compound. The reaction mixtures contained either 3.6 μg/ml IKKα and 245 μg/ml IκBα or 0.9 μg/ml IKKβ and 53 μg/ml IκBα.
Reactions were initiated by adding a solution of IκBα substrate and ATP to polypropylene plates containing IKK enzyme that was pre-incubated for 5 minutes with test compound. Then the reaction mixtures were incubated for 1 hour at 25° C., placed on ice and quenched by the addition of 150 μl 10% trichloroacetic acid and 5% disodium pyrophosphate. After mixing, the entire contents of the quenched reaction mixtures were transferred to a pre-wetted Packard UniFilter filtration plate, aspirated and washed 6 times with 250 μl of ddH2O using the Packard Filtermate Harvester. Filtration plates were then air dried, supplemented with 40 μl of Microscint 20 scintillation fluid and the ^33P-labeled reaction products were quantified using the Packard TopCount scintillation counter.
Compounds were tested in three-fold serial dilutions and inhibitor concentrations to achieve 50% inhibition of enzyme activity (i.e., IC50) were derived from dose-reponse curves using SAS software (SAS Institute, Cary N.C.). A non-linear regression analysis based on the Hill equation was applied to the percent inhibition versus concentration data. In all cases, compound concentrations were verified by HPLC.

IC50, < 1000 nM:
CCCc1cc(N2CCC(NCC(=O)Nc3cnc4ccccc4c3)CC2)nc2sc(C(N)=O)c(N)c12
CC(C)(C)c1cc(N2CCC(N)CC2)nc2sc(C(N)=O)c(N)c12 [3-Amino-6-(4-amino-piperidin-1-yl)-4-tert-butyl-thieno[2,3-b] pyridine-2-carboxylic acid amide]
CCCc1cc(N2CCC(NCC(=O)Nc3ccccc3C(N)=O)CC2)nc2sc(C(N)=O)c(N)c12 [3-Amino-6-(4-{[(2-carbamoyl-phenylcarbamoyl)-methyl]-amino}-piperidin-1-yl)-4-propyl-thieno[2,3-b] pyridine-2-carboxylic acid amide]
CCCc1cc(N2CCC(NCC(=O)NCCO)CC2)nc2sc(C(N)=O)c(N)c12 [3-Amino-6-(4-{[(2-hydroxy-ethylcarbamoyl)-methyl]-amino}-piperidin-1-yl)-4-propyl-thieno[2,3-b] pyridine-2-carboxylic acid amide]
CCCc1cc(N2CCC(NCC(=O)Nc3cccc(C(N)=O)c3)CC2)nc2sc(C(N)=O)c(N)c12 [3-Amino-6-(4-{[(3-carbamoyl-phenylcarbamoyl)-methyl]-amino}-piperidin-1-yl)-4-propyl-thieno[2,3-b] pyridine-2-carboxylic acid amide]
CCCc1cc(N2CCC(NCC(=O)NCC(N)=O)CC2)nc2sc(C(N)=O)c(N)c12 [3-Amino-6-(4-{[(carbamoylmethyl-carbamoyl)-methyl]-amino}-piperidin-1-yl)-4-propyl-thieno[2,3-b] pyridine-2-carboxylic acid amide]
CCCc1cc(N2CCC(NCC(O)C(=O)NCc3ccccc3)CC2)nc2sc(C(N)=O)c(N)c12 (stereo not shown) [3-Amino-6-[4-(2-benzylcarbamoyl-2-hydroxy-ethylamino)-piperidin-1-yl]-4-propyl-thieno[2,3-b] pyridine-2-carboxylic acid amide]
CCCc1cc(N2CCC(NCC(O)c3ccc(-c4ccccc4)cc3)CC2)nc2sc(C(N)=O)c(N)c12 (stereo not shown) [3-Amino-6-[4-(2-biphenyl-4-yl-2-hydroxy-ethylamino)-piperidin-1-yl]-4-propyl-thieno[2,3-b] pyridine-2-carboxylic acid amide]
NC(=O)c1sc2nc(N3CCC(NCC(O)c4ccc(-c5ccccc5)cc4)CC3)cc(C(F)(F)F)c2c1N (stereo not shown) [3-Amino-6-[4-(2-biphenyl-4-yl-2-hydroxy-ethylamino)-piperidin-1-yl]-4-trifluoromethyl-thieno[2,3-b]pyridine-2-carboxylic acid amide]
CCCc1cc(N2CCC(NCC(O)C(=O)Nc3ccccc3)CC2)nc2sc(C(N)=O)c(N)c12 (stereo not shown) [3-Amino-6-[4-(2-hydroxy-2-phenylcarbamoyl-ethylamino)-piperidin-1-yl]-4-propyl-thieno[2,3-b] pyridine-2-carboxylic acid amide]
CCCc1cc(N2CCC(NCC(O)CNc3ccccc3)CC2)nc2sc(C(N)=O)c(N)c12 (stereo not shown) [3-Amino-6-[4-(2-hydroxy-3-phenylamino-propylamino)-piperidin-1-yl]-4-propyl-thieno[2,3-b] pyridine-2-carboxylic acid amide]
CCCc1cc(N2CCC(NCC(O)CCc3ccccc3)CC2)nc2sc(C(N)=O)c(N)c12 (stereo not shown) [3-Amino-6-[4-(2-hydroxy-4-phenyl-butylamino)-piperidin-1-yl]-4-propyl-thieno[2,3-b] pyridine-2-carboxylic acid amide]
NC(=O)c1sc2nc(N3CCC(NCCO)CC3)cc(C(F)(F)F)c2c1N [3-Amino-6-[4-(2-hydroxy-ethylamino)-piperidin-1-yl]-4-trifluoromethyl-thieno[2,3-b]pyridine-2-carboxylic acid amide]
CCCc1cc(N2CCC(NCC(O)COCc3ccccc3)CC2)nc2sc(C(N)=O)c(N)c12 (stereo not shown) [3-Amino-6-[4-(3-benzyloxy-2-hydroxy-propylamino)-piperidin-1-yl]-4-propyl-thieno[2,3-b] pyridine-2-carboxylic acid amide]
CCCc1cc(N2CCC(NC[C@@H](O)COc3ccccc3)CC2)nc2sc(C(N)=O)c(N)c12 [3-Amino-6-[4-((R)-2-hydroxy-3-phenoxy-propylamino)-piperidin-1-yl]-4-propyl-thieno[2,3-b] pyridine-2-carboxylic acid amide]
CCCc1cc(N2CCC(NC[C@H](O)COc3ccccc3)CC2)nc2sc(C(N)=O)c(N)c12 [3-Amino-6-[4-((S)-2-hydroxy-3-phenoxy-propylamino)-piperidin-1-yl]-4-propyl-thieno[2,3-b] pyridine-2-carboxylic acid amide]
CCCc1cc(N2CCC(NCCc3ccc(C(N)=O)cc3)CC2)nc2sc(C(N)=O)c(N)c12 [3-Amino-6-{4-[2-(4-carbamoyl-phenyl)-ethylamino]-piperidin-1-yl}-4-propyl-thieno[2,3-b] pyridine-2-carboxylic acid amide]
CCCc1cc(N2CCC(NCC(O)c3cccc(-c4ccccn4)c3)CC2)nc2sc(C(N)=O)c(N)c12 (stereo not shown) [3-Amino-6-{4-[2-hydroxy-2-(3-pyridin-2-yl-phenyl)-ethylamino]-piperidin-1-yl}-4-propyl-thieno[2,3-b] pyridine-2-carboxylic acid amide]
CCCc1cc(N2CCC(NCC(O)c3ccc(-c4cnccn4)cc3)CC2)nc2sc(C(N)=O)c(N)c12 (stereo not shown) [3-Amino-6-{4-[2-hydroxy-2-(4-pyrazin-2-yl-phenyl)-ethylamino]-piperidin-1-yl}-4-propyl-thieno[2,3-b] pyridine-2-carboxylic acid amide]
CCCc1cc(N2CCC(NCC(O)c3ccc(-c4ccccn4)cc3)CC2)nc2sc(C(N)=O)c(N)c12 (stereo not shown) [3-Amino-6-{4-[2-hydroxy-2-(4-pyridin-2-yl-phenyl)-ethylamino]-piperidin-1-yl}-4-propyl-thieno[2,3-b] pyridine-2-carboxylic acid amide]
NC(=O)c1sc2nc(N3CCC(NCC(O)c4ccc(-c5ccccn5)cc4)CC3)cc(C(F)(F)F)c2c1N (stereo not shown) [3-Amino-6-{4-[2-hydroxy-2-(4-pyridin-2-yl-phenyl)-ethylamino]-piperidin-1-yl}-4-trifluoromethyl-thieno[2,3-b]pyridine-2-carboxylic acid amide]
NC(=O)c1sc2nc(N3CCC(NCC(O)c4ccc(-c5cccnc5)cc4)CC3)cc(C(F)(F)F)c2c1N (stereo not shown) [3-Amino-6-{4-[2-hydroxy-2-(4-pyridin-3-yl-phenyl)-ethylamino]-piperidin-1-yl}-4-trifluoromethyl-thieno[2,3-b]pyridine-2-carboxylic acid amide]
CCCc1cc(N2CCC(NCC(O)c3ccc(-c4ccncc4)cc3)CC2)nc2sc(C(N)=O)c(N)c12 (stereo not shown) [3-Amino-6-{4-[2-hydroxy-2-(4-pyridin-4-yl-phenyl)-ethylamino]-piperidin-1-yl}-4-propyl-thieno[2,3-b] pyridine-2-carboxylic acid amide]
NC(=O)c1sc2nc(N3CCC(NCC(O)c4ccc(-c5ccncc5)cc4)CC3)cc(C(F)(F)F)c2c1N (stereo not shown) [3-Amino-6-{4-[2-hydroxy-2-(4-pyridin-4-yl-phenyl)-ethylamino]-piperidin-1-yl}-4-trifluoromethyl-thieno[2,3-b]pyridine-2-carboxylic acid amide]
CCCc1cc(N2CCC(NCC(O)c3ccc(-c4cncnc4)cc3)CC2)nc2sc(C(N)=O)c(N)c12 (stereo not shown) [3-Amino-6-{4-[2-hydroxy-2-(4-pyrimidin-5-yl-phenyl)-ethylamino]-piperidin-1-yl}-4-propyl-thieno[2,3-b] pyridine-2-carboxylic acid amide]
